{
  "source": "patent US20240118268A1",
  "about": "“BIOMARKERS ON CELLULAR ENDOCRINE MODELS FOR ENDOCRINE DISRUPTION ASSESSMENT” (priority 2020, published 2024)",
  "key": {"[1]": {"test_system": "JEG-Tox cells", "assay": "Reactive Oxygen Species (ROS) production, H2DCF-DA assay", "assay_type": "cell-based, human", "conditions": "48 h", "protocol": "Intracellular ROS were measured using 2′,7′-dichlorodihydro-fluorescein diacetate (H2DCF-DA, Life Technologies), which is hydrolyzed by cell esterases in 2′,7′-dichlorodihydrofluorescein and oxidized by ROS in highly fluorescent 2′,7′-dichlorofluorescein. A 10 μM solution of H2DCF-DA was distributed into wells. After a 20-min incubation period at 37° C., the fluorescence signal was read (λex=485 nm, λem=535 nm) using a Spark microplate reader."}, "[2]": {"assay": "Neutral Red cell viability assay on JEG-Tox cells, 72 h", "assay_type": "cell-based, human", "conditions": "human, 100 μM, 72 h, read-out: cell viability", "protocol": "(§1) The JEG-3 human trophoblast cell line, derived from a human placental carcinoma, was obtained from the American Type Culture Collection (ATCC HTB-36). Cells were cultured in minimum Essential medium, supplemented with 10% fetal bovine serum (FBS), 1% L-glutamine, 0.5% penicillin and streptomycinin, in 75 cm2 polystyrene flasks. Cell cultures were maintained in a cell culture incubator (37° C., saturated humidity, 5% CO2). When the JEG-3 cells reached subconfluency, they were detached using trypsin-EDTA and counted. The cellular suspension was diluted and seeded either in 96-well microplates at a cellular density of 80,000 cells/mL or in 6-well microplates at 120,000 cells/mL, then kept at 37° C. for 24 h. The cells were incubated with EDCs according to example 1.\n(§2) Cell viability was evaluated using the Neutral Red assay. The Neutral Red solution at 0.4% (m/v in water) was diluted in cell culture medium to obtain a working concentration of 50 μg/mL. […] The cells were then rinsed with PBS and lysed with a solution of acetic acid-ethanol (ethanol 50.6%, water 48.4% and acetic acid 1%). After homogenization, the fluorescence signal was scanned (λexc=540 nm, λem=600 nm) with a Tecan Spark microplate reader (Mannedorf, Switzerland). The cell viability was calculated compared to the control cells (the fluorescence of the control cells as 100% viability)."}, "[3]": {"test_system": "JEG-Tox cells", "assay": "Neutral Red cell viability assay on JEG-Tox cells, 72 h", "assay_type": "cell-based, human", "conditions": "72 h", "protocol": "as §1, §2"}, "[4]": {"molecular_target": "T1, P2X7 receptor (Homo sapiens, UniProt Q99572)", "T1 construct": "P2X7 receptor is expressed by human placenta and JEG-Tox; endogenous in cells; host or cells: JEG-3 human trophoblast cell line (ATCC HTB-36) cultured in 2.5% FBS (JEG-Tox)", "T1 sequence (Q99572 1-595)": "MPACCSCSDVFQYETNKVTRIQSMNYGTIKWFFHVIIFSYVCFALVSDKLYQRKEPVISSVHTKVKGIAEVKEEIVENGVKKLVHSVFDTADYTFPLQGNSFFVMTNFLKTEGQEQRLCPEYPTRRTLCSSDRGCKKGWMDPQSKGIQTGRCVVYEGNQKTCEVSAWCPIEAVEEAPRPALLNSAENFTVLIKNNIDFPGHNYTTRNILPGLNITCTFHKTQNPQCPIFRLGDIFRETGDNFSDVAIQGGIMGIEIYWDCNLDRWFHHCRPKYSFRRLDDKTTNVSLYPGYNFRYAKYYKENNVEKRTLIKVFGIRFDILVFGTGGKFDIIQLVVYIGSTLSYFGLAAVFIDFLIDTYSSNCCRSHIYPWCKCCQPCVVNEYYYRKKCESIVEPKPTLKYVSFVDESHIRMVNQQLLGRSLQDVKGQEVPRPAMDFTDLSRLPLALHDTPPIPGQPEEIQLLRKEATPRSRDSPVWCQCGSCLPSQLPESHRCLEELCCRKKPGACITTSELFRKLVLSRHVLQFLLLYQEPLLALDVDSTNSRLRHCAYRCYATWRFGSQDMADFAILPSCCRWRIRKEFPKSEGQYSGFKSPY", "assay_type": "cell-based", "conditions": "for endocrine disruptor according to the definition of the European Union: JEG-3 cells in 2.5% serum, by measuring the activity of the P2X7 receptor", "protocol": "P2X7 cell death receptor activation was evaluated using the YO-PRO-1® assay (Rat et al. J Biol Methods. 2017 Jan. 20; 4(1):e64). YO-PRO-1® probe only enters into cells after P2X7 receptor activation-induced pore opening, and binds to DNA, emitting fluorescence. A 1 mM YO-PRO-1 stock solution was diluted at 1/500 in PBS just before use and distributed into the wells of the microplate. After a 10-minute incubation time at room temperature, fluorescence signal was read (λex=491 nm, λem=509 nm) with a Spark cytofluorometer.\nP2X7 cell death receptor activation was evaluated using the YO-PRO-1® assay (Rat et al., 2017). YO-PRO-1® probe only enters into cells after P2X7 receptor activation-induced pore opening, and binds to DNA, emitting fluorescence. A 1 mM YO-PRO-1 stock solution was diluted at 1/500 in PBS just before use and distributed into the wells of the microplate. After a 10-minute incubation time at room temperature, fluorescence signal was read (λex=485 nm, λem=531 nm) with a Spark cytofluorometer."}, "[5]": {"test_system": "caspase-1", "assay": "Caspase 1 activity, Caspase-Glo 1 Inflammasome Assay", "assay_type": "cell-based, human", "conditions": "72 h", "protocol": "Caspase 1 activity was evaluated using the Caspase-Glo® 1 1 Inflammasome Assay kit. The assay was performed according to the manufacturer's instructions. Luminescence was quantified with a Spark microplate reader.\nCaspase 1 activity was evaluated using the Caspase-Glo®1 Inflammasome Assay kit. The assay was performed according to the manufacturer's instructions. Luminescence was quantified with a Spark microplate reader."}, "[6]": {"test_system": "caspase-9", "assay": "Caspase 9 activity, Caspase-Glo 9 Assay", "assay_type": "cell-based, human", "conditions": "72 h", "protocol": "Caspase 9 activity was evaluated using the Caspase-Glo® 9 Assay kit. The assay was performed according to the manufacturer's instructions. Luminescence was quantified with a Spark microplate reader."}, "[7]": {"test_system": "JEG-Tox cells", "assay": "Chromatin condensation (Hoechst 33342) as a hallmark of apoptosis", "assay_type": "cell-based, human", "conditions": "24 h", "protocol": "The UV fluorescent probe Hoechst 33342 enters living and apoptotic cells, intercalating into DNA. The fluorescent signal is proportional to chromatin condensation in apoptosis. The cells were incubated with Hoechst 33342 at 10 μg/mL for 30 minutes at room temperature. The fluorescence signal was read (λex=360 nm, λem=460 nm) using a cytofluorometer (Spark)."}, "[8]": {"assay": "Neutral red cell viability of JEG-3 cells with SLS or PFOA in 10% or 2.5% FBS", "conditions": "human", "protocol": "(§3) The choriocarcinoma-derived JEG-3 cell-line (ATCC® HTB-36™, Manassas, VA, USA), was grown as recommended by ATCC: Minimum Essential Medium Eagle's medium supplemented with 10% fetal bovine serum, 2 mM of glutamine, 50 IU/mL of penicillin and 50 IU/mL of streptomycin. Cells were detached using trypsin, counted, and then seeded at 80,000 cells/mL in 96-well microplates (200 μL by well) and Nunc® Lab-Tek® II Chamber Slide™ system for immunostaining.\n(§4) Cells were incubated with sodium lauryl sulfate or perfluorooctanoic acid diluted in culture medium supplemented with either 2.5% or 10% FBS. After 24 hours, cell viability was evaluated using the neutral red assay. Neutral Red solution at 0.4% in water was diluted in culture medium with a ratio of 1:79 to give a final concentration of 50 μg/mL. Neutral Red was distributed in the plates for a 3-hour incubation time at 37° C. The cells were then rinsed with PBS to remove any remaining unincorporated dye. The dye was then released from the cells using a lysis solution (1% acetic acid, 50% ethanol and 49% H2O) and the fluorescence was measured (λex=540 nm, λem=600 nm) using Spark microplate fluorometer (Tecan, Mannedorf, Switzerland)."}, "[9]": {"test_system": "JEG-3 cells", "assay": "Neutral red cell viability of JEG-3 cells with SLS or PFOA in 10% or 2.5% FBS", "conditions": "for living cells: 2.5% FBS, 24 h", "protocol": "as §3, §4"}},
  "note": "Where two headings read alike, the source gives them in different places.",
  "data": [
    {"compound": "CC(C)(c1ccc(O)cc1)c1ccc(O)cc1", "note": "[bisphenol A, Bisphenol A]", "values": [
      {"measurement": "effect on ROS production", "setting": "[1]", "value": "no effect"},
      {"measurement": "viability at 72 h, 100 µM", "setting": "[2]; JEG-Tox cells", "value": 18, "unit": "%"},
      {"measurement": "concentration up to which no loss of cell viability was observed", "setting": "[3]", "value": "up to 20 μM"},
      {"measurement": "cytotoxicity (concentration)", "setting": "[3]; Table 4 summary, loss of viability >= 30% counted as cytotoxic", "value": "No"},
      {"measurement": "P2X7 receptor activation compared to control", "setting": "[4]; 20 μM, 72 h", "value": 1.21, "unit": "fold change"},
      {"measurement": "P2X7 receptor activation compared to control", "setting": "[4]; 25 μM, 72 h", "value": 1.26, "unit": "fold change"},
      {"measurement": "P2X7 receptor activation compared to control", "setting": "[4]; 50 μM, 72 h", "value": 1.34, "unit": "fold change"},
      {"measurement": "endocrine disruptor according to the definition of the European Union", "setting": "[4]", "value": "is an endocrine disruptor"},
      {"measurement": "P2X7 receptor activation (in words)", "setting": "[4]; JEG-Tox, 72 h", "value": "triggered P2X7 receptor activation"},
      {"measurement": "P2X7 activation (concentration)", "setting": "[4]; Table 4 summary, 72 h", "value": "5 to 20", "unit": "µM"},
      {"measurement": "caspase-1 activity compared to control", "setting": "[5]; 50 μM", "value": 1.57, "unit": "fold change"},
      {"measurement": "effect on caspase-1 activity", "setting": "[5]", "value": "activated caspase-1"},
      {"measurement": "Casp-1 activation (concentration)", "setting": "[5]; Table 4 summary", "value": 20, "unit": "µM"},
      {"measurement": "caspase-1 activity compared to control", "setting": "[5]; highest concentration tested", "value": 1.64, "unit": "fold change"},
      {"measurement": "caspase-9 activity compared to control", "setting": "[6]; 50 μM (highest concentration)", "value": 1.28, "unit": "fold change"}
    ]},
    {"compound": "O=C(O)C(F)(F)C(F)(F)C(F)(F)C(F)(F)C(F)(F)C(F)(F)C(F)(F)F", "note": "[PFOA, perfluorooctanoic acid]", "values": [
      {"measurement": "concentration at which chromatin condensation was initiated", "setting": "[7]", "value": 20, "unit": "µg/mL"},
      {"measurement": "viability at 24 h, 120 μg/mL", "setting": "[8]", "value": 85, "unit": "%"},
      {"measurement": "living cells", "setting": "[9]; 80 μg/mL", "value": 68, "unit": "%"},
      {"measurement": "living cells", "setting": "[9]; 120 μg/mL", "value": 27, "unit": "%"},
      {"measurement": "concentration at which cytotoxicity was revealed", "setting": "[9]; diluted in 2.5% FBS", "value": 200, "unit": "µM"},
      {"measurement": "concentration at which only a slight loss of cell viability was observed", "setting": "[9]; diluted in 10% FBS", "value": 300, "unit": "µM"}
    ]},
    {"compound": "Oc1ccc(Cc2ccc(O)cc2)cc1", "note": "[bisphenol F, Bisphenol F]", "values": [
      {"measurement": "concentration at which chromatin condensation was initiated", "setting": "[7]", "value": 5, "unit": "µg/mL"},
      {"measurement": "ROS production compared to control", "setting": "[1]; 25 μM", "value": 2.5, "unit": "fold change"},
      {"measurement": "ROS production compared to control", "setting": "[1]; 50 μM", "value": 2.5, "unit": "fold change"},
      {"measurement": "viability at 72 h, 100 µM", "setting": "[2]", "value": 64, "unit": "%"},
      {"measurement": "P2X7 receptor activation compared to control", "setting": "[4]; 25 μM, 72 h", "value": 1.24, "unit": "fold change"},
      {"measurement": "P2X7 receptor activation compared to control", "setting": "[4]; 50 μM, 72 h", "value": 1.46, "unit": "fold change"},
      {"measurement": "endocrine disruptor according to the definition of the European Union", "setting": "[4]", "value": "corresponds also to an endocrine disruptor"},
      {"measurement": "caspase-1 activity compared to control", "setting": "[5]; 25 μM", "value": 1.60, "unit": "fold change"},
      {"measurement": "caspase-1 activity compared to control", "setting": "[5]; 50 μM", "value": 2.61, "unit": "fold change"},
      {"measurement": "caspase-9 activity compared to control", "setting": "[6]; 25 μM", "value": 1.47, "unit": "fold change"},
      {"measurement": "caspase-9 activity compared to control", "setting": "[6]; 50 μM (highest concentration)", "value": 1.67, "unit": "fold change"}
    ]}
  ]
}
